test system: Tetranychus urticae; assay: Acaricidal activity against Tetranychus urticae (two-spotted spider mite) in kidney bean leaf assessed as mortality at 500 ppm at 25 degC measured after 5 days; format: functional; conditions: 120 h

SMILES | mortality at 500 ppm
Cc1ncsc1C(=O)NCc1ccc(C(C)(C)C)cc1 | 30%
Cc1nc(C)c(C(=O)NCc2ccc(C(C)(C)C)cc2)s1 | 100%
CCn1nc(C)cc1C(=O)NCc1ccc(C(C)(C)C)cc1 | 0%
CCn1ncc(C(=O)NCc2ccc(C(C)(C)C)cc2)c1C | 0%
CCc1cc(C(=O)NCc2ccc(C(C)(C)C)cc2)n(C)n1 | 100%
CCc1nc(C)c(C(=O)N(C)Cc2ccc(C(C)(C)C)cc2)s1 | 100%
Cc1nn(C)cc1C(=O)NCc1ccc(C(C)(C)C)cc1 | 100%
CCn1cc(C(=O)NCc2ccc(C(C)(C)C)cc2)c(C)n1 | 100%
CCc1cc(C(=O)NCc2ccc(C(C)(C)C)cc2)nn1C | 0%
Cc1cc(C(=O)NCc2ccc(C(C)(C)C)cc2)n(C)n1 | 100%

test system: Tetranychus urticae; assay: Acaricidal activity against Tetranychus urticae (two-spotted spider mite) in kidney bean leaf assessed as mortality at 50 ppm at 25 degC measured after 5 days; format: functional; conditions: 120 h

SMILES | mortality at 50 ppm
Cc1ncsc1C(=O)NCc1ccc(C(C)(C)C)cc1 | 0%
Cc1nc(C)c(C(=O)NCc2ccc(C(C)(C)C)cc2)s1 | 100%
CCn1nc(C)cc1C(=O)NCc1ccc(C(C)(C)C)cc1 | 0%
CCn1ncc(C(=O)NCc2ccc(C(C)(C)C)cc2)c1C | 0%
CCc1cc(C(=O)NCc2ccc(C(C)(C)C)cc2)n(C)n1 | 100%
CCc1nc(C)c(C(=O)N(C)Cc2ccc(C(C)(C)C)cc2)s1 | 100%
Cc1nn(C)cc1C(=O)NCc1ccc(C(C)(C)C)cc1 | 0%
CCn1cc(C(=O)NCc2ccc(C(C)(C)C)cc2)c(C)n1 | 100%
CCc1cc(C(=O)NCc2ccc(C(C)(C)C)cc2)nn1C | 0%
Cc1cc(C(=O)NCc2ccc(C(C)(C)C)cc2)n(C)n1 | 100%

test system: Tetranychus urticae; assay: Acaricidal activity against Tetranychus urticae (two-spotted spider mite) in kidney bean leaf assessed as mortality at 3.1 ppm at 25 degC measured after 5 days; format: functional; conditions: 120 h

SMILES | mortality at 3.1 ppm
Cc1ncsc1C(=O)NCc1ccc(C(C)(C)C)cc1 | 0%
Cc1nc(C)c(C(=O)NCc2ccc(C(C)(C)C)cc2)s1 | 0%
CCn1nc(C)cc1C(=O)NCc1ccc(C(C)(C)C)cc1 | 0%
CCn1ncc(C(=O)NCc2ccc(C(C)(C)C)cc2)c1C | 0%
CCc1cc(C(=O)NCc2ccc(C(C)(C)C)cc2)n(C)n1 | 0%
CCc1nc(C)c(C(=O)N(C)Cc2ccc(C(C)(C)C)cc2)s1 | 0%
Cc1nn(C)cc1C(=O)NCc1ccc(C(C)(C)C)cc1 | 0%
CCn1cc(C(=O)NCc2ccc(C(C)(C)C)cc2)c(C)n1 | 0%
CCc1cc(C(=O)NCc2ccc(C(C)(C)C)cc2)nn1C | 0%
Cc1cc(C(=O)NCc2ccc(C(C)(C)C)cc2)n(C)n1 | 0%

test system: Tetranychus urticae; assay: Acaricidal activity against Tetranychus urticae (two-spotted spider mite) in kidney bean leaf assessed as mortality at 200 ppm at 25 degC measured after 5 days; format: functional; conditions: 120 h

SMILES | mortality at 200 ppm
Cc1ncsc1C(=O)NCc1ccc(C(C)(C)C)cc1 | 0%
Cc1nc(C)c(C(=O)NCc2ccc(C(C)(C)C)cc2)s1 | 100%
CCn1nc(C)cc1C(=O)NCc1ccc(C(C)(C)C)cc1 | 0%
CCn1ncc(C(=O)NCc2ccc(C(C)(C)C)cc2)c1C | 0%
CCc1cc(C(=O)NCc2ccc(C(C)(C)C)cc2)n(C)n1 | 100%
CCc1nc(C)c(C(=O)N(C)Cc2ccc(C(C)(C)C)cc2)s1 | 100%
Cc1nn(C)cc1C(=O)NCc1ccc(C(C)(C)C)cc1 | 80%
CCn1cc(C(=O)NCc2ccc(C(C)(C)C)cc2)c(C)n1 | 100%
CCc1cc(C(=O)NCc2ccc(C(C)(C)C)cc2)nn1C | 0%
Cc1cc(C(=O)NCc2ccc(C(C)(C)C)cc2)n(C)n1 | 100%

test system: Tetranychus urticae; assay: Acaricidal activity against Tetranychus urticae (two-spotted spider mite) in kidney bean leaf assessed as mortality at 12.5 ppm at 25 degC measured after 5 days; format: functional; conditions: 120 h

SMILES | mortality at 12.5 ppm
Cc1ncsc1C(=O)NCc1ccc(C(C)(C)C)cc1 | 0%
Cc1nc(C)c(C(=O)NCc2ccc(C(C)(C)C)cc2)s1 | 0%
CCn1nc(C)cc1C(=O)NCc1ccc(C(C)(C)C)cc1 | 0%
CCn1ncc(C(=O)NCc2ccc(C(C)(C)C)cc2)c1C | 0%
CCc1cc(C(=O)NCc2ccc(C(C)(C)C)cc2)n(C)n1 | 100%
CCc1nc(C)c(C(=O)N(C)Cc2ccc(C(C)(C)C)cc2)s1 | 30%
Cc1nn(C)cc1C(=O)NCc1ccc(C(C)(C)C)cc1 | 0%
CCn1cc(C(=O)NCc2ccc(C(C)(C)C)cc2)c(C)n1 | 30%
CCc1cc(C(=O)NCc2ccc(C(C)(C)C)cc2)nn1C | 0%
Cc1cc(C(=O)NCc2ccc(C(C)(C)C)cc2)n(C)n1 | 30%

From ChEMBL document CHEMBL3046446, “Structure and Acaricidal Activity of Pyrazolecarboxamides and Thiazole-5-carboxamides” (1994)
